Results from patent US20070123556A1, “Treatment with Sigma Receptor Agonists Post-Stroke” (UNIVERSITY OF SOUTH FLORIDA, priority 2005, published 2007).
pIC50: −log10 of the molar value. Like-named read-outs stand apart in the source and are kept apart here.

How the values were obtained:
[1] = test system: cultured cortical neurons; experiment: in vitro ischemia (sodium azide/glucose deprivation), fura-2 [Ca2+]i; type: cell-based, rat; conditions: for pIC50: Langmuir-Hill fit, read-out: IC50 (half-maximal concentration), inhibition of ischemia-evoked increases in [Ca2+]i
Description: The effects of sigma receptors on ischemia-induced changes in intracellular calcium concentrations were studied in cultured cortical neurons from embryonic (E18) rats. Dams were euthanatized by decapitation, uterus removed, and embryos dissected out and placed in isotonic buffer containing (in mM): 137 NaCl, 5 KCl, 0.2 NaH2PO4, 0.2 KH2PO4, 5.5 glucose, 6 sucrose (pH 7.4 with NaOH). Cortex were excised and minced, and tissue digested in isotonic buffer containing 0.25% trypsin/EDTA for 10 min at 37° C. and added to 3× volume of high glucose culture media (Dulbecco's Modified Eagle Media; Invitrogen, Inc., Carlsbad, Calif.), 10% (v/v) fetal calf serum, 100 U/ml penicillin and 0.1 mg/ml streptomycin. Cells were counted on a hemocytometer, plated (0.5×10^6 cells) on 18 mm coverslips coated with poly-l-lysine, and incubated at 37° C. under a 95% air, 5% CO2 atmosphere. After 24 hr the media was replaced with Neurobasal (Invitrogen) medium supplemented with B27 (Invitrogen) and 0.5 mM 1-glutamine to limit astrocyte proliferation in the cultures. Cells were used after 14-21 days in culture.
Intracellular free-calcium was measured using the calcium sensitive dye, fura-2 as previously described (DeHaven and Cuevas, 2004). Cells plated on coverslips were incubated for 1 hour at room temperature in physiological saline solution (PSS) consisting of (in mM): 140 NaCl, 3 KCl, 2.5 CaCl2, 1.2 MgCl2, 7.7 glucose and 10 HEPES (pH to 7.2 with NaOH), which also contained 1 μM of the membrane permeable ester form of fura-2, acetoxymethylester (fura-2 AM) and 0.1% dimethyl sulfoxide (DMSO). The coverslips were then washed in PSS (fura-2 AM free) prior to the experiments being carried out. All solutions were applied via a rapid application system identical to that previously described (Cuevas and Berg, 1998).
A DG-4 high-speed wavelength switcher (Sutter Instruments Co., Novato, Calif.) was used to apply alternating excitation light, and fluorescent emission was captured using a Sensicam digital CCD camera (Cooke Corporation, Auburn Hills, Mich.) and recorded with Slidebook 3.0 software (Intelligent Imaging Innovations, Denver, Colo.). Changes in [Ca^2+]i were calculated using the Slidebook 3 software (Intelligent Imaging Innovations) using methods described previously (DeHaven and Cuevas, 2004).
In vitro ischemia was achieved using the sodium azide/glucose deprivation model.
The control bath solution for all experiments was a physiological saline solution (PSS) containing (in mM) 140 NaCl, 1.2 MgCl2, 3 KCl, 2.5 CaCl2, 7.7 glucose and 10 HEPES, pH to 7.2 with NaOH. All drugs were applied in this solution unless otherwise noted. In vitro ischemia was induced by addition of the cytochrome oxidase inhibitor, NaN3 (4 mM), and removal of glucose from the PSS. For experiments in which multiple ischemic episodes were induced in a single cell, the order of drug application was alternatively reversed to compensate for any effects due to rundown, desensitization or ischemic preconditioning. For experiments with metaphit, cells were preincubated in 50 μM metaphit during the last 15 mm of fura-2 loading and immediately prior to experiments being conducted. The metaphit was washed off for 5 min in the bath using PSS.

[2] = test system: ASIC channels; experiment: low-pH (pH 6.0) evoked ASIC-mediated increases in [Ca2+]i; type: cell-based, rat; conditions: 50 μM, pH 6.0, reversible
[3] = target: sigma-1 receptors (Homo sapiens, UniProt Q99720); conditions: cited from earlier work
[4] = test system: delayed outwardly rectifying K+ channels; conditions: frog pituitary melanotrophs; read-out: IC50 inhibition of delayed outwardly rectifying K+ channels; cited from earlier work
[5] = test system: voltage-gated K channels; conditions: rat intracardiac neurons; read-out: IC50 inhibition of voltage-gated K channels; cited from earlier work
[6] = test system: glutamate receptors; conditions: cited from earlier work
[7] = test system: transient ischemia model (MCAO); conditions: intravenous, 1-2 hr following reperfusion; cited from earlier work
[8] = test system: cultured cortical neurons; experiment: spontaneous Ca2+ transients, fura-2 [Ca2+]i; type: cell-based, rat
[9] = test system: rat hippocampal slices; conditions: rat hippocampal slices (Thurgur and Church, 1998); read-out: value reported for inhibition of epileptiform activity; cited from earlier work
[10] = target: sigma-2 receptors (Homo sapiens, UniProt Q5BJF2); conditions: cited from earlier work
[11] = test system: voltage-gated Ca2+; conditions: rat intracardiac neurons; read-out: IC50 inhibition of voltage-gated Ca2+; cited from earlier work

Chain of sigma-2 receptors (Q5BJF2 whole entry): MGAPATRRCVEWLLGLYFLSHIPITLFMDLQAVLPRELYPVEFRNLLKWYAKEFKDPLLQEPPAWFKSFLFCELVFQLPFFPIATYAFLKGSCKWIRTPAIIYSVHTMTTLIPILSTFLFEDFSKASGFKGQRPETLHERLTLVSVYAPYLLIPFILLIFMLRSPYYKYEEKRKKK
Chain of sigma-1 receptors (Q99720 whole entry): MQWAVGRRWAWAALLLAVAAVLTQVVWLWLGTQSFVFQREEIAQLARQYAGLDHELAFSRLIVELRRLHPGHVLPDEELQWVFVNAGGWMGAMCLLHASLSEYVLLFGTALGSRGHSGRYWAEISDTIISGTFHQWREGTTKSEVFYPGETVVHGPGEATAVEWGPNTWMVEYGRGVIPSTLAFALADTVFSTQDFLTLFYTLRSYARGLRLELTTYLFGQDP

For `CC(C)=CCN1CCC2(C)c3cc(O)ccc3CC1C2C` (single isomer, unassigned; (+)) [(+)-pentazocine], which “decrease of ischemia-induced elevations in [Ca2+]i” value ([1]; 10 μM) is on record?
The value was 37±5%.

What about the “decrease of ischemia-induced elevations in [Ca2+]i” value ([1]; 10 μM, listed as (+) pentazocine) of the same compound?
Its value is ~60%.

What about the “decrease of ischemia-induced elevations in [Ca2+]i” value ([1]; 100 μM) of the same compound?
Its value is 49±4%.

What about the “decrease of low-pH evoked increases in [Ca2+]i” value [2] of the same compound?
Its value is 50%.

What about the “affinity of sigma-1 receptors relative to ibogaine” value [3] of the same compound?
Its value is ~2000 fold.

What about the pIC50 [4] of the same compound?
The pIC50 was 4.43.

What about the pIC50 [5] of the same compound?
Its pIC50 is 4.38.

For `C=CCN1CCC2(C)c3cc(O)ccc3CC1C2C` (single isomer, unassigned; (+)) [(+)SKFIOO47], which “inhibition of calcium elevations evoked by glutamate application” value (shortened to “inhibition of calcium elevations evoked”) ([6]; 10 μM) is on record?
The value was “inhibit”.

With `CN(C)CCN(C)CCc1ccc(Cl)c(Cl)c1` [BD-1047, N-[2-(3,4-dichlorophenyl)ethyl]-N-methyl-2-(dimethylamino)ethylamine] as the compound, how does the “reduction of the effects of DTG on ischemia-evoked calcium transients” value ([1]; 1 pM BD-1047, with DTG) read?
Its value is 15%.

And the “reduction of the effects of DTG on ischemia-evoked calcium transients” value ([1]; 10 pM BD-1047, with DTG)?
The value was 55%.

Which “decrease in neurodegeneration in brain sections” value [7] does the source give for `c1ccc(CCCCN2CCC(c3ccccc3)CC2)cc1` [PPBP, 4-phenyl-1-(4-phenylbutyl)piperidine] here?
The value was 40%.

Which “decrease of ischemia-induced elevations in [Ca2+]i” value ([1]; 10 μM) does the source give for `O=C(OCCN1CCOCC1)C1(c2ccccc2)CCCCC1` [PRE-084] here?
Its value is 26±4%.

What about the “decrease of ischemia-induced elevations in [Ca2+]i” value ([1]; 100 μM) of the same compound?
The value was 58±1%.

For `NC1=N[C@H](O)[C@H]2[C@H]3O[C@]4(O)O[C@@H]([C@@H](O)[C@@]2(N1)[C@@H]4O)[C@]3(O)CO` [TTX, tetrodotoxin], which “decrease of ischemia-evoked increase in [Ca2+]i” value [1] is on record?
Its value is 65±4%.

With `CCN(CC)CCOCCOC(=O)C1(c2ccccc2)CCCC1` [carbetapentane] as the compound, how does the pIC50 [1] read?
The pIC50 was 4.89.

And the pIC50 ([1]; Rattus norvegicus, Cortical neurone)?
The pIC50 was 4.88.

And the “effect on spontaneous increases in [Ca2+]i (number of events)” value ([8]; 100 μM)?
Its value is “significant decrease”.

What about the “affinity of sigma-1 receptors relative to sigma-2 receptors” value ([3]; sigma-1 over sigma-2) of the same compound?
Its value is > 30 fold.

What about the pIC50 [9] of the same compound?
The pIC50 was 4.42.

And the “inhibition of calcium elevations evoked” value ([6]; 100 μM)?
The value was “not”.

Which “inhibition of calcium elevations evoked” value ([6]; 10 μM) does the source give for `O=C(CCCN1CCC(O)(c2ccc(Cl)cc2)CC1)c1ccc(F)cc1` [haloperidol] here?
The value was “inhibit”.

With `C/C=C(/C)C(=O)O[C@H]1C(C)=C2[C@H]([C@@H]1OC(=O)CCCCCCC)[C@@](C)(OC(C)=O)C[C@H](OC(=O)CCC)[C@@]1(O)[C@H]2OC(=O)[C@@]1(C)O` [thapsigargin] as the compound, how does the “effect on ischemia-induced peak elevation in [Ca2+]i” value ([1]; 10 μM, thapsigargin by preincubation) read?
Its value is “decreased the peak elevation”.

Which “effect on ischemia-induced elevations in [Ca2+]i” value ([1]; 1-100 μM) does the source give for ibogaine here?
Its value is “failed to inhibit”.

What about the “effect on number of spontaneous calcium events” value ([8]; 50 μM) of the same compound?
The value was “significantly decreased”.

What about the “decrease of low-pH evoked increases in [Ca2+]i” value [2] of the same compound?
The value was 70%.

What about the “affinity of sigma-2 receptors relative to (+)-pentazocine” value [10] of the same compound?
Its value is ~6 fold.

What about the “affinity of sigma-2 receptors relative to sigma-1 receptors” value ([10]; sigma-2 over sigma-1) of the same compound?
The value was > 40 fold.

What about the pIC50 [11] of the same compound?
The pIC50 was 4.51.

For metaphit, which “ischemia-induced elevation in [Ca2+]i” value ([1]; preincubation in 50 μM metaphit, no DTG) is on record?
Its value is 495 ± 68 nM.

Which “effect on ischemia-induced peak elevation in [Ca2+]i” value [1] does the source give for ryanodine here?
Its value is “did not significantly alter”.
